From patent US20130045939A1, “FATTY ACID MACROLIDE DERIVATIVES AND THEIR USES” (CATABASIS PHARMACEUTICALS, INC., priority 2010, published 2013)

System: NF-κB
Experiment: NF-κB luciferase reporter assay in LPS-stimulated RAW 264.7 macrophages
Type: cell-based
Conditions: Mus musculus, RAW264.7; RAW 264.7 cells stably expressing 3× NFκB response element luciferase reporter; 2 hour pretreatment, 200 ng/ml LPS for 3 hours; 6 dose point titrations in triplicate
Description: RAW 264.7 cells stably expressing a 3× NFκB response element-drive luciferase reporter were seeded into 96 well plates in sera-free medium (Optimen) 18 hours prior to compound application. Compounds of the invention were prepared by first making 100 mM stock solutions in EtOH. Stock solutions were then diluted 1:100 in low LPS FBS (Gemini BenchMark 100-106), mixed vigorously and allowed to incubate at room temperature for 30 minutes. 1:2 serial dilutions were then made in FBS supplemented with 1% EtOH, mixed vigorously, and again allowed to incubate at room temperature for 30 minutes before adding to RAW 264.7 reporter cells (final concentrations: 10% FBS, 100 uM highest compound dilution, 0.1% EtOH) for a 2 hour pretreatment prior to stimulation with LPS. Cells were then stimulated with 200 ng/ml LPS or vehicle control for 3 hours in the presence of the compounds of the invention. A set of six vehicles was left unstimulated with LPS in order to measure the assay floor. […] After the 3 h incubation period with LPS, cell viability was measured by reading fluorescence (excitation 550 nm, emission 595 nm) with a Perkin Elmer Victor V plate reader. […] Luciferase activity was measured with the Perkin Elmer Victor V plate reader. NF-κB activity was expressed as a percent of the vehicle control wells (stimulated with LPS). […]

IC50: 18 µM
Structure (SMILES): CC/C=C\C/C=C\C/C=C\C/C=C\C/C=C\C/C=C\CCC(=O)N1C[C@H](C)C[C@@](C)(O)[C@H](O)[C@@H](C)[C@H](O)[C@@H](C)C(=O)O[C@H](CC)[C@@](C)(O)[C@H](O)[C@H]1C [Ia-3, (2R,3S,4R,5R,8R,10R,11R,12S,13S,14R)-6-((4Z,7Z,10Z,13Z,16Z,19Z)-docosa-4,7,10,13,16,19-hexaenoyl)-2-ethyl-3,4,10,11,13-pentahydroxy-3,5,8,10,12,14-hexamethyl-1-oxa-6-azacyclopentadecan-15-one]
